Test results published in patent publication US20070167492A1, “Molluscicidal agents” (priority 2003, published 2007).

Tests used:
Type in all cases: in vivo
[1] = system: Deroceras reticulatum (grey field slug); test: Example 1: pot test, treated winter wheat seed with 5 adult slugs per pot, 14 days
Description: (§1) Winter wheat (Kampa race; thousand grain weight of 51 grams) was used in an experiment to test the efficacy of the compositions of the present inventions in relation to known molluscicidal compounds. The seeds were disinfected for soil and germ moulds with 2 ml of Beret Gold (comprising 25 g/l of the fungicide fludioxonil) per kg of seed.
(§2) Sepiret® was added to all dry disinfections, and is the coating that was added to all agents of which the formulation was not suitable for coating.
The seeds were sown in earthenware pots with an internal diameter of 20 cm and a height of 18 cm, filled with 7 cm of potting soil (Trio BV, Weesp, The Netherlands) and with a top 2 cm of white quartz sand. A total of 40 seeds was placed in each pot, in a pattern of concentric circles on top of the quartz sand, the germ facing upwards. To each pot a total of 5 adult specimens of the test slug Deroceras reticulatum (grey field slug) were added. The pots were incubated at ±15° C. with a relative humidity of ±90% and light regime of ±12 hours light/12 hours dark, without artificial lighting. The pots were not irrigated overhead. In total, 4 parallel tests were performed for each test.
Following the addition of the slugs, the number of damaged seeds was counted after 2, 3, 7, 10 and 14 days. The number of plants present (germinated and not eaten or damaged by the slugs) was determined 3, 7, 10 and 14 days after the start of the test. […] The number of dead slugs was counted 2, 3, 7, 10 and 14 days after the start of the test (but not removed). Finally, on days 3, 7, 10 and 14 after the start of the test, the number fecal pellets was counted.
(§3) The data were statistically analysed by using F-tests (α=0.05) and pair-wise Student-tests.

[2] = system: Winter wheat (Kampa race) seeds; test: Seed germination test of treated winter wheat seeds (rolled in paper); conditions: 3x50 seeds, 6 days at 22° C.
Description: as §1, §2
Table 2 provides an overview of the amounts of diluent water and Sepiret® used for treating the wheat seeds. Table 2 further provides the quality of the coating and the percentages of germinating seeds in a seed germination test. In this test, the percentage of germination of 3×50 seeds, rolled in paper, was determined after 6 days at 22° C. (continuously) and a 16 hours light regime.

[3] = system: Deroceras reticulatum (grey field slug); test: Example 2: pot re-test, treated winter wheat seed with 5 adult slugs per pot, 7 days
Source text: Based on the results of the experiment described in Example 1, a selection was made from the various test numbers of that experiment for re-testing, partly to confirm the conclusions of that experiment and to test the unexpected outcome of some test compounds.
The selection of test numbers (Test No.) used in the present experiment relative to those of the experiment described in Example 1 is shown in Table 7.
The same seeds as described in Example 1 were sown in earthenware pots with an internal diameter of 20 cm and a height of 18 cm, filled with 7 cm of potting soil (Trio BV, Weesp, The Netherlands) and with a top 2 cm of white quartz sand. A total of 40 winter wheat seeds was placed in each pot, in a pattern of concentric circles on top of the quartz sand, the germ of the seed facing upwards. To each pot a total of 5 adult specimens of the test slug Deroceras reticulatum (grey field slug) were added. The pots were incubated at 18-19° C. with a relative humidity of ±95% and light regime of ±18 hours light/6 hours dark, without artificial lighting. The pots were not irrigated overhead. In total, 4 parallel tests were performed for each test.
The number of damaged seeds was, the number of plants present (germinated and not eaten or damaged by the slugs), the number of dead slugs and of the number of fecal pellets were determined after 2, 3 and 7 days following the addition of the slugs.
as §3

[4] = 2 ml formulated per kg seed, 2 days after sowing
[5] = 2 ml formulated per kg seed, 3 days after sowing
[6] = 2 ml formulated per kg seed, 7 days after sowing
[7] = 2 ml formulated per kg seed, 10 days after sowing
[8] = 2 ml formulated per kg seed, 14 days after sowing
[9] = 4 ml formulated per kg seed, 2 days after sowing
[10] = 4 ml formulated per kg seed, 3 days after sowing
[11] = 4 ml formulated per kg seed, 7 days after sowing
[12] = 4 ml formulated per kg seed, 10 days after sowing
[13] = 4 ml formulated per kg seed, 14 days after sowing
[14] = 8 ml formulated per kg seed, 2 days after sowing
[15] = 8 ml formulated per kg seed, 3 days after sowing
[16] = 8 ml formulated per kg seed, 7 days after sowing
[17] = 8 ml formulated per kg seed, 10 days after sowing
[18] = 8 ml formulated per kg seed, 14 days after sowing
[19] = Example 2, 2 ml formulated per kg seed, 2 days after sowing
[20] = Example 2, 2 ml formulated per kg seed, 3 days after sowing
[21] = Example 2, 2 ml formulated per kg seed, 7 days after sowing
[22] = Example 2, 4 ml formulated per kg seed, 2 days after sowing
[23] = Example 2, 4 ml formulated per kg seed, 3 days after sowing
[24] = Example 2, 4 ml formulated per kg seed, 7 days after sowing
[25] = Example 2, after 2, 3 and 7 days

## CNC(=O)Oc1cc(C)c(SC)c(C)c1 [methiocarb, 4-methylthio-3,5-xylyl methylcarbamate]
[1]; 2 ml formulated per kg seed
  number of utilizable plants after 14 days: 15.5
  percentage of damaged seeds after 14 days: 44%
[1]; [4]
  Mean number of damaged seeds per pot: 2.0
  Mean number of dead slugs per pot: 0.3
[1]; [5]
  Mean number fecal pellets per pot: 18
  Mean number of damaged seeds per pot: 5.3
  Mean number of dead slugs per pot: 0.3
  Mean number of plants present per pot: 10.5
[1]; [6]
  Mean number fecal pellets per pot: 43
  Mean number of damaged seeds per pot: 19.3
  Mean number of dead slugs per pot: 0.3
  Mean number of plants present per pot: 16.5
[1]; [7]
  Mean number fecal pellets per pot: 47
  Mean number of damaged seeds per pot: 17.0
  Mean number of dead slugs per pot: 0.3
  Mean number of plants present per pot: 19.8
[1]; [8]
  Mean number fecal pellets per pot: 50
  Mean number of damaged seeds per pot: 17.8
  Mean number of dead slugs per pot: 0.5
  Mean number of plants present per pot: 21.3
[1]; 4 ml formulated per kg seed
  number of utilizable plants after 14 days: 19.8
  percentage of damaged seeds after 14 days: 13%
[1]; [9]
  Mean number of damaged seeds per pot: 1.3
  Mean number of dead slugs per pot: 0
[1]; [10]
  Mean number fecal pellets per pot: 16
  Mean number of damaged seeds per pot: 3.3
  Mean number of dead slugs per pot: 0
  Mean number of plants present per pot: 7.8
[1]; [11]
  Mean number fecal pellets per pot: 34
  Mean number of damaged seeds per pot: 10.8
  Mean number of dead slugs per pot: 0.3
  Mean number of plants present per pot: 22.8
[1]; [12]
  Mean number fecal pellets per pot: 35
  Mean number of damaged seeds per pot: 4.8
  Mean number of dead slugs per pot: 0.3
  Mean number of plants present per pot: 30.3
[1]; [13]
  Mean number fecal pellets per pot: 36
  Mean number of damaged seeds per pot: 5.0
  Mean number of dead slugs per pot: 1.8
  Mean number of plants present per pot: 29.8
[1]; 8 ml formulated per kg seed
  number of utilizable plants after 14 days: 33.0
  percentage of damaged seeds after 14 days: 8%
[1]; [14]
  Mean number of damaged seeds per pot: 1.8
  Mean number of dead slugs per pot: 0
[1]; [15]
  Mean number fecal pellets per pot: 6
  Mean number of damaged seeds per pot: 2.5
  Mean number of dead slugs per pot: 0.3
  Mean number of plants present per pot: 4.3
[1]; [16]
  Mean number fecal pellets per pot: 23
  Mean number of damaged seeds per pot: 4.5
  Mean number of dead slugs per pot: 0.5
  Mean number of plants present per pot: 32.0
[1]; [17]
  Mean number fecal pellets per pot: 27
  Mean number of damaged seeds per pot: 3.3
  Mean number of dead slugs per pot: 1.3
  Mean number of plants present per pot: 33.8
[1]; [18]
  Mean number fecal pellets per pot: 27
  Mean number of damaged seeds per pot: 3.3
  Mean number of dead slugs per pot: 1.5
  Mean number of plants present per pot: 34.8
[1]; Example 1
  effect on the slug population: little effect on the slug population
[1]; Example 1, 2, 4 and 8 ml per kg of seed, from day 3 after sowing
  damaged seeds relative to the untreated pots: significantly less damaged seeds
[1]; Example 1, 2, 4 or 8 ml per kg of seed, after 3 (only 2 ml), 7, 10 and 14 days
  plants present relative to the untreated pots: significantly more plants present
[1]; Example 1, at each dosage and at each observation
  fecal pellets relative to the untreated seed: significantly less fecal pellets
[1]; Example 1, winter wheat seed treatment, dosages tested
  protection / slug controlling effect (conclusion): good protection to both seeds and plants
[2]; 2 ml formulated per kg seed
  Percentage germinated: 61%
[2]; 4 ml formulated per kg seed
  Percentage germinated: 63%
[2]; 8 ml formulated per kg seed
  Percentage germinated: 27%
[3]; Example 2
  dead slugs observed during the course of the experiment: More dead slugs
  result of seed treatment against slugs (conclusion): fairly food protection of the seeds against slugs
[3]; Example 2, 2 ml formulated per kg seed
  percentage of damaged seeds after 7 days: 14%
[3]; [19]
  Mean number of damaged seeds per pot: 2.5
  Mean number of dead slugs per pot: 0.3
[3]; [20]
  Mean number of damaged seeds per pot: 4.8
  Mean number of dead slugs per pot: 0.5
[3]; [21]
  Mean number of damaged seeds per pot: 5.5
  Mean number of dead slugs per pot: 2.3
[3]; Example 2, 4 ml formulated per kg seed
  percentage of damaged seeds after 7 days: 9%
[3]; [22]
  Mean number of damaged seeds per pot: 1.8
  Mean number of dead slugs per pot: 0
[3]; [23]
  Mean number of damaged seeds per pot: 2.0
  Mean number of dead slugs per pot: 1.8
[3]; [24]
  Mean number of damaged seeds per pot: 3.5
  Mean number of dead slugs per pot: 3.3
[3]; [25]
  number of fecal pellets per pot relative to the untreated control: significant reduction in the number of fecal pellets
  plants present relative to the untreated seed: significantly more plants present
[3]; Example 2, two days after the start
  number of damaged seeds relative to the untreated seed: significant reduction in the number of damaged seeds
[3]; dosage 2 ml, 2 days
  Mean number of fecal pellets per pot: 1
  Mean number of plants present per pot: 9.0
[3]; dosage 2 ml, 3 days
  Mean number of fecal pellets per pot: 9
  Mean number of plants present per pot: 22.5
[3]; dosage 2 ml, 7 days
  Mean number of fecal pellets per pot: 20
  Mean number of plants present per pot: 34.0
  number of utilizable plants after 7 days: 26.8
[3]; dosage 4 ml, 2 days
  Mean number of fecal pellets per pot: 2
  Mean number of plants present per pot: 28.3
[3]; dosage 4 ml, 3 days
  Mean number of fecal pellets per pot: 7
  Mean number of plants present per pot: 33.3
[3]; dosage 4 ml, 7 days
  Mean number of fecal pellets per pot: 11
  Mean number of plants present per pot: 34.5
  number of utilizable plants after 7 days: 32.5
